Assay results taken from patent US20200390767A1, “Formulations of 4-(7-Hydroxy-2-isopropyl-4-oxo-4H-quinazolin-3-yl)-benzonitrile” (NOVARTIS AG, priority 2019, published 2020).

Tested on: corneal sensitivity
Assay: First in human study, esthesiometry assessment (Part 3)
Format: in vivo
Details: single eye drop; for anesthetic effect on the cornea: healthy subjects
Text: Part 3 was an esthesiometry assessment to evaluate the anesthetic properties of compound I. Part 3 of the study had four arms, with compound I, vehicle, tetracaine (0.5% ophthalmic solution, used as a positive control) and diclofenac sodium (0.1% ophthalmic solution, used as the active NSAID comparator). Ocular anesthetic was selected because of its established anesthetic effect; however it is not the standard of care due to its negative effect on wound healing. NSAID is the current standard of care for corneal pain after PRK with minimal anesthetic but significant pain control properties. Vehicle eye drops were used as a negative control to enable better determination of the potential anesthetic effect. Twelve healthy subjects, who met the eligibility criteria, were randomized to receive a single eye drop of 4 study treatments, each during 1 of 4 different study days (Days 1, 4, 7 and 10). Each subject was randomized to receive the study treatment according to one of the following four sequences: • Sequence 1: Anesthetic, NSAID, compound I 2.5%, Vehicle • Sequence 2: NSAID, Vehicle, Anesthetic, compound I 2.5% • Sequence 3: Vehicle, compound I 2.5%, NSAID, Anesthetic • Sequence 4: compound I 2.5%, Anesthetic, Vehicle, NSAID
The first-in-human study further evaluated potential anesthetic effect of topical ocular 2.5% compound I by esthesiometry testing, i.e. measurement of the filament length (cm) when the threshold of cornea touch is perceived.

O=C(O)Cc1ccccc1Nc1c(Cl)cccc1Cl [diclofenac 0.1%, diclofenac sodium]
anesthetic effect on the cornea: no anesthetic effect

CCCCNc1ccc(C(=O)OCCN(C)C)cc1 [tetracaine 0.5%, tetracaine]
duration of action of anesthetic effect: approximately 10 minutes
anesthetic effect on the cornea: had an anesthetic effect
